Assay results as given in ChEMBL document CHEMBL1201862, “PubChem BioAssay data set” (2004).
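Step 1: Grow cells in 96-well plates. Step 2: Expose to compound for 48 hours at 5 concentrations. Step 3: Interpolate endpoints linearly; if unreached, use highest concentration. GI50 marks 50% less growth.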 Activity calls are given as the source filed them. Cut-off read from the data, not from the text of the source: active = GI50 up to about 1.1 µM and inactive = higher.

Columns and labels:
Test in all cases: DTP human tumour cell line panel, 48 h
A498 = test system: A498
ACHN = test system: ACHN
BT-549 = test system: BT-549
DU-145 = test system: DU-145
EKVX = test system: EKVX
HCT-116 = test system: HCT-116
HOP-62 = test system: HOP-62
K562 = test system: K562
MCF7 = test system: MCF7
MDA-N = test system: MDA-N
NCI/ADR-RES = test system: NCI/ADR-RES
OVCAR-4 = test system: OVCAR-4
OVCAR-5 = test system: OVCAR-5
OVCAR-8 = test system: OVCAR-8
PC-3 = test system: PC-3
RXF 393 = test system: RXF 393
SF-539 = test system: SF-539
SN12C = test system: SN12C
SR = test system: SR
SW-620 = test system: SW-620

SMILES	GI50 (A498)	GI50 (ACHN)	GI50 (BT-549)	GI50 (DU-145)	GI50 (EKVX)	GI50 (HCT-116)	GI50 (HOP-62)	GI50 (K562)	GI50 (MCF7)	GI50 (MDA-N)	GI50 (NCI/ADR-RES)	GI50 (OVCAR-4)	GI50 (OVCAR-5)	GI50 (OVCAR-8)	GI50 (PC-3)	GI50 (RXF 393)	GI50 (SF-539)	GI50 (SN12C)	GI50 (SR)	GI50 (SW-620)
c1ccc(/C(=N/Nc2ccccn2)c2cccnn2)cc1	> 25.3 µM (inactive)	0.998 µM (active)	13.9 µM (inactive)	2.62 µM (inactive)	1.74 µM (inactive)	2.28 µM (inactive)	2.85 µM (inactive)	1.47 µM (inactive)	3.43 µM (inactive)	7.57 µM (inactive)	2.17 µM (inactive)	> 84.5 µM (inactive)	7.73 µM (inactive)	1.87 µM (inactive)	5.86 µM (inactive)	15.7 µM (inactive)	2.74 µM (inactive)	2.15 µM (inactive)	0.522 µM (active)	3.44 µM (inactive)
c1ccc([C@@H]2N[C@@]3(CO[Si](c4ccccc4)(c4ccccc4)c4ccccc4)CC[C@H]4CN[C@@H]2[C@H]43)cc1	15.3 µM (inactive)	13.7 µM (inactive)	20.9 µM (inactive)	10.2 µM (inactive)	15.3 µM (inactive)	3.23 µM (inactive)	16.6 µM (inactive)	3.33 µM (inactive)	2.99 µM (inactive)	3.58 µM (inactive)	15.4 µM (inactive)	13.6 µM (inactive)	16.1 µM (inactive)	13.1 µM (inactive)	9.06 µM (inactive)	4.3 µM (inactive)	15.3 µM (inactive)	13.2 µM (inactive)	3.15 µM (inactive)	3.25 µM (inactive)
CC[C@H](C)C(=O)O[C@H]1CCC=C2C=C[C@H](C)[C@H](CC[C@@H]3C[C@@H](O)CC(=O)O3)[C@H]21 [MEVASTATIN]	5.43 µM (inactive)	3.88 µM (inactive)	4.75 µM (inactive)	> 92.3 µM (inactive)	> 38.9 µM (inactive)	17.1 µM (inactive)	> 100 µM (inactive)	30.1 µM (inactive)	20.3 µM (inactive)	> 100 µM (inactive)	10.3 µM (inactive)	43.1 µM (inactive)	31.6 µM (inactive)	8.26 µM (inactive)	2.26 µM (inactive)	14.3 µM (inactive)	7.35 µM (inactive)	> 78.9 µM (inactive)	8.73 µM (inactive)	24.7 µM (inactive)
N#C/C(=C\c1cc(Cl)cc(Cl)c1)c1ccccn1	0.757 µM (active)	64.1 µM (inactive)	4.71 µM (inactive)	70.6 µM (inactive)	3.46 µM (inactive)	34.3 µM (inactive)	20 µM (inactive)	3.95 µM (inactive)	5.61 µM (inactive)	10.1 µM (inactive)	3.93 µM (inactive)	53 µM (inactive)	> 100 µM (inactive)	18 µM (inactive)	11.3 µM (inactive)	5.11 µM (inactive)	19.1 µM (inactive)	> 100 µM (inactive)	6.27 µM (inactive)	15.6 µM (inactive)
O=C1/C(=C/c2ccccc2)CCc2ccccc21	16.9 µM (inactive)	17.2 µM (inactive)	16.2 µM (inactive)	16.2 µM (inactive)	17.8 µM (inactive)	15.1 µM (inactive)	15.7 µM (inactive)	6.97 µM (inactive)	5.15 µM (inactive)	16.2 µM (inactive)	28.4 µM (inactive)	14.8 µM (inactive)	16.8 µM (inactive)	25.6 µM (inactive)	19 µM (inactive)	15.2 µM (inactive)	16 µM (inactive)	21.9 µM (inactive)	9.71 µM (inactive)	13.9 µM (inactive)
O=c1oc2ccc3ccccc3c2cc1-c1nc2ccccc2o1	25.9 µM (inactive)	13.9 µM (inactive)	31.3 µM (inactive)	20.7 µM (inactive)	20.6 µM (inactive)	21.7 µM (inactive)	18.6 µM (inactive)	58.3 µM (inactive)	1.26 µM (inactive)	23.3 µM (inactive)	20 µM (inactive)	21 µM (inactive)	> 100 µM (inactive)	23.2 µM (inactive)	28.1 µM (inactive)	16.1 µM (inactive)	15.8 µM (inactive)	22.6 µM (inactive)	16.2 µM (inactive)	21.8 µM (inactive)
COC(=O)[C@]12CC[C@H]3CN(C(=O)OCc4ccccc4)[C@H]([C@H]31)[C@H](c1ccco1)N2S(=O)(=O)c1ccc(C)cc1	27.4 µM (inactive)	35.3 µM (inactive)	15.7 µM (inactive)	32.3 µM (inactive)	44.4 µM (inactive)	14.9 µM (inactive)	25.8 µM (inactive)	16.9 µM (inactive)	17.5 µM (inactive)	18.9 µM (inactive)	23.5 µM (inactive)	28.5 µM (inactive)	38.5 µM (inactive)	28.9 µM (inactive)	31 µM (inactive)	18.2 µM (inactive)	33.1 µM (inactive)	18.5 µM (inactive)	13.5 µM (inactive)	30.4 µM (inactive)
O=C(O)c1cc2c(cc1CC(Cc1ccccc1)C(=O)O)CCC2 (stereo not given)	> 100 µM (inactive)	> 100 µM (inactive)	> 100 µM (inactive)	> 100 µM (inactive)	> 100 µM (inactive)	> 100 µM (inactive)	> 100 µM (inactive)	> 100 µM (inactive)	> 100 µM (inactive)	> 100 µM (inactive)	> 100 µM (inactive)	> 100 µM (inactive)	> 100 µM (inactive)	> 100 µM (inactive)	> 100 µM (inactive)	> 100 µM (inactive)	> 100 µM (inactive)	> 100 µM (inactive)	> 100 µM (inactive)	> 100 µM (inactive)
CC(C)C1=C(Cc2ccccc2)C(=O)O/C1=C\c1ccc(O)c(Cl)c1	17.6 µM (inactive)	14.9 µM (inactive)	22.2 µM (inactive)	18.2 µM (inactive)	16.6 µM (inactive)	15.5 µM (inactive)	17.7 µM (inactive)	16 µM (inactive)	15.7 µM (inactive)	16.5 µM (inactive)	> 10 µM (inactive)	14.7 µM (inactive)	18.4 µM (inactive)	18.3 µM (inactive)	17.9 µM (inactive)	17.5 µM (inactive)	18.6 µM (inactive)	16.9 µM (inactive)	10.4 µM (inactive)	19.1 µM (inactive)
C=C(C)[C@@H]1CC=C(CO)CC1 [PERILLYL ALCOHOL]	548 µM (inactive)	121 µM (inactive)	> 10 µM (inactive)	> 10 µM (inactive)	617 µM (inactive)	96.2 µM (inactive)	184 µM (inactive)	30.5 µM (inactive)	> 10 µM (inactive)	> 10 µM (inactive)	> 10 µM (inactive)	515 µM (inactive)	169 µM (inactive)	145 µM (inactive)	> 10 µM (inactive)	93.8 µM (inactive)	501 µM (inactive)	555 µM (inactive)	152 µM (inactive)	637 µM (inactive)
COc1c2c(c(OC)c3c1c(=O)c1ccccc1n3C)OCO2	53.3 µM (inactive)	49.2 µM (inactive)	15 µM (inactive)	36.5 µM (inactive)	35.4 µM (inactive)	6.15 µM (inactive)	25.2 µM (inactive)	0.703 µM (active)	4.2 µM (inactive)	2.08 µM (inactive)	44.9 µM (inactive)	24.6 µM (inactive)	> 72.3 µM (inactive)	27.1 µM (inactive)	19.7 µM (inactive)	6.07 µM (inactive)	5.31 µM (inactive)	33.5 µM (inactive)	3.69 µM (inactive)	4.13 µM (inactive)
NC(=O)CC(N)c1nnn[nH]1 (stereo not given)	> 100 µM (inactive)	> 100 µM (inactive)	> 100 µM (inactive)	> 100 µM (inactive)	> 100 µM (inactive)	> 100 µM (inactive)	> 100 µM (inactive)	> 100 µM (inactive)	> 100 µM (inactive)	> 100 µM (inactive)	> 100 µM (inactive)	> 100 µM (inactive)	> 100 µM (inactive)	> 100 µM (inactive)	> 100 µM (inactive)	> 100 µM (inactive)	> 100 µM (inactive)	> 100 µM (inactive)	> 100 µM (inactive)	> 100 µM (inactive)
